Test results from patent publication US20250296971A1, “GASTRIC INHIBITORY PEPTIDE RECEPTOR LIGANDS” (priority 2021, published 2025).
*1 amine or outer side, *2 acyl side, *3 side chain or, on linkers, in order; H or OH if unused. Where a SMILES comes first, the peptide text is derived from it. Bridges are numbered along the chain shown (N, C = ends). [ ]: non-standard residue; d: D form. The star is where a group is joined. ξ: configuration not given here. X5 = NC(=O)[C@H](CCCCNC(=O)CN1CCN(CC(=O)O)CCN(CC(=O)O)CCN(CC(=O)O)CC1)NC(=O)CCC(=O)NCCCOCCOCCOCCCN*; X3 = O=C(O)CN1CCN(CC(=O)O)CCN(CC(=O)NCCCOCCOCCOCCCN*)CCN(CC(=O)O)CC1; Propanoyl(3-(1-naphthyl)) = O=C(CCc1cccc2ccccc12)*; Trp(5-Cl) = N[C@@H](Cc1c[nH]c2ccc(Cl)cc12)C(=O)O; Trp(5-OH) = N[C@@H](Cc1c[nH]c2ccc(O)cc12)C(=O)O; Trp(7-aza) = N[C@@H](Cc1c[nH]c2ncccc12)C(=O)O; NMeW = CN[C@@H](Cc1c[nH]c2ccccc12)C(=O)O; 1Nal = N[C@@H](Cc1cccc2ccccc12)C(=O)O; mXylylene = c1cc(C[*:1])cc(C[*:2])c1; X7 = c1cc(CSCCN[*:2])cc(C[*:1])c1; Cha = N[C@@H](CC1CCCCC1)C(=O)O; αMeL = CC(C)C[C@](C)(N)C(=O)O; Suc = O=C(CCC(=O)[*:2])[*:1]; Aib = CC(C)(N)C(=O)O; ξP = O=C(O)C1CCCN1

Molecular target: T1, GIPR (CHO-K1-hGIPR cells) (Homo sapiens, UniProt P48546)
T1 construct: host or cells: CHO-K1
T1 sequence (P48546 22-466): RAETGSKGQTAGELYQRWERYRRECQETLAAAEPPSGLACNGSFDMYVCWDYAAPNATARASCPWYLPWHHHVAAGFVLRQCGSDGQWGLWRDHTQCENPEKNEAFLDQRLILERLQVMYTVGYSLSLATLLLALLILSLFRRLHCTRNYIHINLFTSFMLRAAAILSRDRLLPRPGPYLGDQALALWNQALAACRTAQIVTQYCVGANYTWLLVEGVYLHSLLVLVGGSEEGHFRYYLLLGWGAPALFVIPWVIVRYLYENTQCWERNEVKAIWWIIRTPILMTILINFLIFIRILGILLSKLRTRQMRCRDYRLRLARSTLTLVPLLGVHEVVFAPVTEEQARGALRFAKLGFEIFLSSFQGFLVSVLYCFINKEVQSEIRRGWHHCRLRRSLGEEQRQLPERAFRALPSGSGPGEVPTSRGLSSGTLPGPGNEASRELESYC
Test: FACS binding assay
Settings: competition with 20 nM GIP-057, 4° C. for 1 hour, read-out: pIC50 Category (converted)
Procedure, shortened: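 Steps: detach CHO-K1-hGIPR cells (Accutase); wash in PBS/1% FCS; adjust to 500.000 cells per mL; wash ice-cold; incubate APC-streptavidin 1 μg/mL, 30 min on ice; wash twice; acquire on flow cytometer; fit MFI-concentration data with a four-parameter logistic model.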

| SMILES | IC50 [nM] |
| --- | --- |
| CC[C@H](C)[C@@H]1NC(=O)[C@H](CC(C)C)NC(=O)C(C)(C)NC(=O)[C@@H](NC(=O)[C@H](CC2CCCCC2)NC(=O)[C@H](CCC(=O)O)NC(=O)[C@@H]2CCCN2C(=O)[C@H](Cc2c[nH]c3ccccc23)NC(=O)[C@H](Cc2c[nH]c3ccccc23)NC(=O)[C@H](CC(=O)O)NC(C)=O)CSCc2cccc(c2)CSC[C@@H](C(=O)NCCCOCCOCCOCCCNC(=O)CCC(=O)N[C@@H](CCCCNC(=O)CN2CCN(CC(=O)O)CCN(CC(=O)O)CCN(CC(=O)O)CC2)C(N)=O)NC1=O [GIP-295, Ac-Asp-Trp-Trp-Pro-Glu-Cha-[Cys(3MeBn)-Aib-Leu-Ile-Cys]-Ttds-Lys(DOTA)-NH2] (Ac-DWWPE[Cha]C[Aib]LIC-X5; linker 7-11 via mXylylene) | > 1000 |
| CC[C@H](C)[C@@H]1NC(=O)[C@H](CC(C)C)NC(=O)C(C)(C)NC(=O)[C@@H](NC(=O)[C@](C)(CC(C)C)NC(=O)[C@H](CCC(=O)O)NC(=O)[C@@H]2CCCN2C(=O)[C@H](Cc2c[nH]c3ccccc23)NC(=O)[C@H](Cc2c[nH]c3ccccc23)NC(=O)[C@H](CC(=O)O)NC(C)=O)CSCc2cccc(c2)CSC[C@@H](C(=O)NCCCOCCOCCOCCCNC(=O)CCC(=O)N[C@@H](CCCCNC(=O)CN2CCN(CC(=O)O)CCN(CC(=O)O)CCN(CC(=O)O)CC2)C(N)=O)NC1=O [GIP-296, Ac-Asp-Trp-Trp-Pro-Glu-Aml-[Cys(3MeBn)-Aib-Leu-Ile-Cys]-Ttds-Lys(DOTA)-NH2] (Ac-DWWPE[αMeL]C[Aib]LIC-X5; linker 7-11 via mXylylene) | > 1000 |
| CC[C@H](C)[C@@H]1NC(=O)[C@H](CC(C)C)NC(=O)C(C)(C)NC(=O)[C@@H](NC(=O)[C@H](CC(C)C)NC(=O)[C@H](CCC(=O)O)NC(=O)[C@@H]2CCCN2C(=O)[C@H](Cc2c[nH]c3ccccc23)NC(=O)[C@H](Cc2c[nH]c3ccccc23)N(C)C(=O)[C@H](CC(=O)O)NC(C)=O)CSCc2cccc(c2)CSC[C@@H](C(=O)NCCCOCCOCCOCCCNC(=O)CCC(=O)N[C@@H](CCCCNC(=O)CN2CCN(CC(=O)O)CCN(CC(=O)O)CCN(CC(=O)O)CC2)C(N)=O)NC1=O [GIP-297, Ac-Asp-Nmw-Trp-Pro-Glu-Leu-[Cys(3MeBn)-Aib-Leu-Ile-Cys]-Ttds-Lys(DO TA)-NH2] (Ac-D[NMeW]WPELC[Aib]LIC-X5; linker 7-11 via mXylylene) | > 1000 |
| CC[C@H](C)[C@@H]1NC(=O)[C@H](CC(C)C)NC(=O)C(C)(C)NC(=O)[C@@H](NC(=O)[C@H](CC(C)C)NC(=O)[C@H](CCC(=O)O)NC(=O)[C@@H]2CCCN2C(=O)[C@H](Cc2cccc3ccccc23)NC(C)=O)CSCc2cccc(c2)CSC[C@@H](C(=O)NCCCOCCOCCOCCCNC(=O)CCC(=O)N[C@@H](CCCCNC(=O)CN2CCN(CC(=O)O)CCN(CC(=O)O)CCN(CC(=O)O)CC2)C(N)=O)NC1=O [GIP-298, Ac-1Ni-Pro-Glu-Leu-[Cys(3MeBn)-Aib-Leu-Ile-Cys]-Ttds-Lys(DOTA)-NH2] (Ac-[1Nal]PELC[Aib]LIC-X5; linker 5-9 via mXylylene) | > 1000 |
| CC[C@H](C)[C@@H]1NC(=O)[C@H](CC(C)C)NC(=O)C(C)(C)NC(=O)[C@@H](NC(=O)[C@H](CC(C)C)NC(=O)[C@H](CCC(=O)O)NC(=O)[C@@H]2CCCN2C(=O)CCc2cccc3ccccc23)CSCc2cccc(c2)CSC[C@@H](C(=O)NCCCOCCOCCOCCCNC(=O)CCC(=O)N[C@@H](CCCCNC(=O)CN2CCN(CC(=O)O)CCN(CC(=O)O)CCN(CC(=O)O)CC2)C(N)=O)NC1=O [GIP-299, Nph1p-Pro-Glu-Leu-[Cys(3MeBn)-Aib-Leu-Ile-Cys]-Ttds-Lys(DOTA)-NH2] ({Propanoyl(3-(1-naphthyl))}-PELC[Aib]LIC-X5; linker 4-8 via mXylylene) | > 1000 |
| CC(=O)N[C@@H](CC(=O)O)C(=O)N[C@@H](Cc1c[nH]c2ccccc12)C(=O)N[C@@H](Cc1cccc2ccccc12)C(=O)N1CCC[C@H]1C(=O)N[C@@H](CCC(=O)O)C(=O)N[C@H](CC(C)C)C(=O)N[C@H]1CSCc2cccc(c2)CSC[C@@H](C(=O)NCCCOCCOCCOCCCNC(=O)CCC(=O)N[C@@H](CCCCNC(=O)CN2CCN(CC(=O)O)CCN(CC(=O)O)CCN(CC(=O)O)CC2)C(N)=O)NC(=O)[C@@H](C(C)C)NC(=O)[C@H](CC(C)C)NC(=O)[C@H](C)NC1=O [GIP-300, Ac-Asp-Trp-1Ni-Pro-Glu-leu-[Cys(3MeBn)-Ala-Leu-val-Cys]-Ttds-Lys(DOTA)-NH2] (Ac-DW[1Nal]PE[dL]CAL[dV]C-X5; linker 7-11 via mXylylene) | > 1000 |
| CC[C@H](C)[C@@H]1NC(=O)[C@H](CC(C)C)NC(=O)C(C)(C)NC(=O)[C@@H](NC(=O)[C@H](CC(C)C)NC(=O)[C@H](CCC(=O)O)NC(=O)[C@@H]2CCCN2C(=O)[C@H](Cc2cccc3ccccc23)NC(=O)[C@H](Cc2c[nH]c3ccccc23)NC(C)=O)CSCc2cccc(c2)CSC[C@@H](C(=O)NCCCOCCOCCOCCCNC(=O)CCC(=O)N[C@@H](CCCCNC(=O)CN2CCN(CC(=O)O)CCN(CC(=O)O)CCN(CC(=O)O)CC2)C(N)=O)NC1=O [GIP-301, Ac-Trp-1Ni-Pro-Glu-Leu-[Cys(3MeBn)-Aib-Leu-Ile-Cys]-Ttds-Lys(DOTA)-NH2] (Ac-W[1Nal]PELC[Aib]LIC-X5; linker 6-10 via mXylylene) | > 1000 |
| CC[C@H](C)[C@@H]1NC(=O)[C@H](CC(C)C)NC(=O)C(C)(C)NC(=O)[C@@H](NC(=O)[C@@H](CC(C)C)NC(=O)[C@H](CCC(=O)O)NC(=O)[C@@H]2CCCN2C(=O)[C@H](Cc2c[nH]c3ccc(O)cc23)NC(=O)[C@H](Cc2c[nH]c3ccccc23)NC(=O)[C@H](CC(=O)O)NC(C)=O)CSCc2cccc(c2)CSC[C@@H](C(=O)NCCCOCCOCCOCCCNC(=O)CCC(=O)N[C@@H](CCCCNC(=O)CN2CCN(CC(=O)O)CCN(CC(=O)O)CCN(CC(=O)O)CC2)C(N)=O)NC1=O [GIP-302, Ac-Asp-Trp-Hyw-Pro-Glu-leu-[Cys(3MeBn)-Aib-Leu-Ile-Cys]-Ttds-Lys(DOTA)-NH2] (Ac-DW[Trp(5-OH)]PE[dL]C[Aib]LIC-X5; linker 7-11 via mXylylene) | > 1000 |
| CC[C@H](C)[C@@H]1NC(=O)[C@H](CC(C)C)NC(=O)C(C)(C)NC(=O)[C@@H](NC(=O)[C@@H](CC(C)C)NC(=O)[C@H](CCC(=O)O)NC(=O)[C@@H]2CCCN2C(=O)[C@H](Cc2cccc3ccccc23)NC(=O)[C@H](Cc2c[nH]c3ncccc23)NC(=O)[C@H](CC(=O)O)NC(C)=O)CSCc2cccc(c2)CSC[C@@H](C(=O)NCCCOCCOCCOCCCNC(=O)CCC(=O)N[C@@H](CCCCNC(=O)CN2CCN(CC(=O)O)CCN(CC(=O)O)CCN(CC(=O)O)CC2)C(N)=O)NC1=O [GIP-303, Ac-Asp-7Nw-1Ni-Pro-Glu-leu-[Cys(3MeBn)-Aib-Leu-Ile-Cys]-Ttds-Lys(DOTA)-NH2] (Ac-D[Trp(7-aza)][1Nal]PE[dL]C[Aib]LIC-X5; linker 7-11 via mXylylene) | > 1000 |
| CC[C@H](C)[C@@H]1NC(=O)[C@H](CC(C)C)NC(=O)[C@@H](NC(=O)[C@H](CCC(=O)O)NC(=O)[C@@H](CC(C)C)NC(=O)[C@H](Cc2c[nH]c3ccc(Cl)cc23)NC(=O)[C@@H]2CCCN2C(=O)[C@H](CC(=O)O)NC(=O)[C@H](Cc2c[nH]c3ccccc23)NC(=O)CCC(=O)NCCCOCCOCCOCCCNC(=O)CN2CCN(CC(=O)O)CCN(CC(=O)O)CCN(CC(=O)O)CC2)CSCc2cccc(c2)CSCCNC(=O)C(C)(C)NC1=O [GIP-304, DOTA-Ttds-Trp-Asp-Pro-5Clw-leu-Glu-[Cys(3MeBn)-Leu-Ile-Aib-AET]] ({X3-Suc}-WDP[Trp(5-Cl)][dL]ECLI[Aib]; linker 7-C via X7) | > 1000 |
| CC[C@H](C)[C@@H]1NC(=O)C(C)(C)NC(=O)[C@H](CCC(=O)O)NC(=O)[C@@H](NC(=O)[C@H](CC(C)C)NC(=O)[C@H](Cc2c[nH]c3ccccc23)NC(=O)[C@H](Cc2c[nH]c3ccc(Cl)cc23)NC(=O)[C@@H]2CCCN2C(=O)[C@H](CC(=O)O)NC(=O)[C@@H](CC(C)C)NC(=O)CCC(=O)NCCCOCCOCCOCCCNC(=O)CN2CCN(CC(=O)O)CCN(CC(=O)O)CCN(CC(=O)O)CC2)CSCc2cccc(c2)CSCCNC1=O [GIP-305, DOTA-Ttds-leu-Asp-Pro-5Clw-Trp-Leu-[Cys(3MeBn)-Glu-Aib-Ile-AET]] ({X3-Suc}-[dL]DP[Trp(5-Cl)]WLCE[Aib]I; linker 7-C via X7) | > 1000 |
| CC[C@H](C)[C@@H]1NC(=O)[C@@H](NC(=O)[C@H](Cc2c[nH]c3ccccc23)NC(=O)[C@H](CC(=O)O)NC(=O)[C@@H](CC(C)C)NC(=O)[C@H](CCC(=O)O)NC(=O)C2CCCN2C(=O)[C@H](Cc2c[nH]c3ccc(Cl)cc23)NC(=O)CCC(=O)NCCCOCCOCCOCCCNC(=O)CN2CCN(CC(=O)O)CCN(CC(=O)O)CCN(CC(=O)O)CC2)CSCc2cccc(c2)CSCCNC(=O)C(C)(C)NC(=O)[C@H](CC(C)C)NC1=O (stereo partly drawn) [GIP-306, DOTA-Ttds-5Clw-Pro-Glu-leu-Asp-Trp-[Cys(3MeBn)-Ile-Leu-Aib-AET]] ({X3-Suc}-[Trp(5-Cl)][ξP]E[dL]DWCIL[Aib]; linker 7-C via X7) | > 1000 |
| CC[C@H](C)[C@@H]1NC(=O)[C@H](CC(C)C)NC(=O)[C@H](C)NC(=O)[C@@H](NC(=O)[C@H](CC(C)C)NC(=O)[C@H](CCC(=O)O)NC(=O)[C@@H]2CCCN2C(=O)[C@H](Cc2c[nH]c3ccccc23)NC(=O)[C@H](Cc2c[nH]c3ccccc23)NC(=O)[C@@H](CC(=O)O)NC(=O)[C@H](Cc2ccc(O)cc2)NC(=O)[C@@H](N)CCSC)CSCc2cccc(c2)CSC[C@@H](C(N)=O)NC1=O [GIP-307, H-Met-Tyr-asp-Trp-Trp-Pro-Glu-Leu-[Cys(3MeBn)-Ala-Leu-Ile-Cys]-NH2] (H-MY[dD]WWPELCALIC-NH2; linker 9-13 via mXylylene) | 100 to 794 |
